# Assay results reported in ChEMBL document CHEMBL4627384, “l-Thyroxin and the Nonclassical Thyroid Hormone TETRAC Are Potent Activators of PPARγ” (J Med Chem, 2020).
# Activity calls are given as the source filed them. No cut-off for these calls is given here.
# Experiments:
# [1] = molecular target: T1, Peroxisome proliferator-activated receptor gamma (Homo sapiens) (UniProt P37231); assay: Agonist activity at PPARgamma in human HepG2 cells without THRB knockdown assessed as induction of CD36 expression at 30 uM incubated for 8 hrs in by Western blot analysis; type: cell-based
# T1 sequence (whole entry): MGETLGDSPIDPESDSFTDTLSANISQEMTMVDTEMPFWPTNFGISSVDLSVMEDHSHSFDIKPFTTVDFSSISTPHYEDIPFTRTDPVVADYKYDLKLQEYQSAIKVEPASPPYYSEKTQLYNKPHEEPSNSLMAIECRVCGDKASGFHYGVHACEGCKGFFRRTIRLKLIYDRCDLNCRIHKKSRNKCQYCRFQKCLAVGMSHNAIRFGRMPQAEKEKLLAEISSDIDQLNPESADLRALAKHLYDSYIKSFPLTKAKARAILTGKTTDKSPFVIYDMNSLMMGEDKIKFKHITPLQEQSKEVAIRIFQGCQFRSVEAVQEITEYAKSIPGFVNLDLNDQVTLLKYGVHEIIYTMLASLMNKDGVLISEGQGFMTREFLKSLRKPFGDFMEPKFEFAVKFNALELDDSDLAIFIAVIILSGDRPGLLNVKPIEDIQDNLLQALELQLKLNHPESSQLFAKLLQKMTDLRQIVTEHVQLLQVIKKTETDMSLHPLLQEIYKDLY
# [2] = Drug metabolism in human HepG2 cells assessed as 2-(4-(4-hydroxy-3-iodophenoxy)-3,5-diiodophenyl)acetic acid formation at 10 uM incubated for 24 hrs by LC-MS analysis; type: ADME, cell-based; details: hepg2, 24 h
# [3] = molecular target: T1, Peroxisome proliferator-activated receptor gamma (Homo sapiens); assay: Agonist activity at N-terminal GFP-fused PPARgamma LBD (unknown origin) assessed as biotin-labeled CBP recruitment incubated for 2 hrs by HT-FRET assay
# [4] = molecular target: T1, Peroxisome proliferator-activated receptor gamma (Homo sapiens); assay: Agonist activity at N-terminal GFP-fused PPARgamma LBD (unknown origin) assessed as biotin-labeled SRC-1 recruitment incubated for 2 hrs by HT-FRET assay relative to rosiglitazone
# [5] = molecular target: T2, Retinoic acid receptor RXR-alpha (Homo sapiens, UniProt P19793); assay: Agonist activity at GFP RXRalpha LBD (unknown origin) assessed as biotin-labeled SRC-1 recruitment incubated for 2 hrs by HT-FRET assay
# T2 sequence (P19793 whole entry): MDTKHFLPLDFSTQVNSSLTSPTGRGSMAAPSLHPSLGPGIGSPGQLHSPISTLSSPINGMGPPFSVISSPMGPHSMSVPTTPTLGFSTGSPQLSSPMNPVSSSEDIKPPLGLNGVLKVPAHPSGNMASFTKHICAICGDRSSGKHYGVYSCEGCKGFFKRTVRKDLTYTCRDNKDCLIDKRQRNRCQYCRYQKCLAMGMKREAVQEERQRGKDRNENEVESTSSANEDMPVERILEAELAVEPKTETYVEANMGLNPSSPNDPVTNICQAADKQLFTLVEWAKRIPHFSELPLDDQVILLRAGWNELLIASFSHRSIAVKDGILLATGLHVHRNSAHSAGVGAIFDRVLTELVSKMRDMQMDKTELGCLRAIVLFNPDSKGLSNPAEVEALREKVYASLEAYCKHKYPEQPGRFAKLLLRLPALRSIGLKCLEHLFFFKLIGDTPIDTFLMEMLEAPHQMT
# [6] = molecular target: T3, Peroxisome proliferator-activated receptor gamma (Mus musculus) (UniProt P37238); assay: Agonist activity at PPARgamma in mouse 3T3L1 assessed as induction of adipocytes differentiation by Oil Red O staining based assay; type: cell-based; details: 3T3-L1
# T3 sequence (whole entry): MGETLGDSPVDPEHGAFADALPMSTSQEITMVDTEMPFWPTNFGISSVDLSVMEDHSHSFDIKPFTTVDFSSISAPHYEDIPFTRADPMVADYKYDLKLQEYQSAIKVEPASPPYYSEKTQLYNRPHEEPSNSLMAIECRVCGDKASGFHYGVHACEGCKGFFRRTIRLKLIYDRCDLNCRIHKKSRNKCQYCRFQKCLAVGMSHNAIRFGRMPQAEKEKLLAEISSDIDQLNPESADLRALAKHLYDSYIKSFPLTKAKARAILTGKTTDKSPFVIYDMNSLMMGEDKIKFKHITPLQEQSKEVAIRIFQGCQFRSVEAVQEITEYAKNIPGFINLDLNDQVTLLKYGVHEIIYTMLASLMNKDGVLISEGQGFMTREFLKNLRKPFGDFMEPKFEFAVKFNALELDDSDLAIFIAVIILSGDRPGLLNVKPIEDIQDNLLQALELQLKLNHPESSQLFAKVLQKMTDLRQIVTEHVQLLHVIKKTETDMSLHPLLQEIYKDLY
# [7] = molecular target: T3, Peroxisome proliferator-activated receptor gamma (Mus musculus); assay: Agonist activity at PPARgamma in mouse 3T3L1 adipocytes assessed as induction of CD36 mRNA expression at 1 uM by qRT-PCR analysis; type: cell-based; details: 3T3-L1
# [8] = molecular target: T3, Peroxisome proliferator-activated receptor gamma (Mus musculus); assay: Agonist activity at PPARgamma in mouse 3T3L1 adipocytes assessed as induction of adiponectin mRNA expression at 1 uM by qRT-PCR analysis; type: cell-based; details: 3T3-L1
# [9] = molecular target: T3, Peroxisome proliferator-activated receptor gamma (Mus musculus); assay: Agonist activity at PPARgamma in mouse 3T3L1 adipocytes assessed as induction of GLUT4 mRNA expression at 1 uM by qRT-PCR analysis; type: cell-based; details: 3T3-L1
# [10] = molecular target: T1, Peroxisome proliferator-activated receptor gamma (Homo sapiens); assay: Agonist activity at PPARgamma in human HepG2 cells assessed as induction of CD36 mRNA expression at 1 uM incubated for 8 hrs in presence of PPARgamma antagonist GW9662 by qPCR analysis; type: cell-based
# [11] = molecular target: T4, Hepatocyte nuclear factor 4-alpha (Homo sapiens) (UniProt P41235); assay: Agonist activity at recombinant human pFA-CMV-fused HNF4alpha LBD expressed in HEK293T cells transfected with pFR-luciferase plasmid and pRL-SV40 plasmid at 0.001 to 0.3 uM incubated for 14 to 16 hrs by dual glo luciferase reporter gene assay; type: cell-based; details: HEK-293T
# T4 sequence (whole entry): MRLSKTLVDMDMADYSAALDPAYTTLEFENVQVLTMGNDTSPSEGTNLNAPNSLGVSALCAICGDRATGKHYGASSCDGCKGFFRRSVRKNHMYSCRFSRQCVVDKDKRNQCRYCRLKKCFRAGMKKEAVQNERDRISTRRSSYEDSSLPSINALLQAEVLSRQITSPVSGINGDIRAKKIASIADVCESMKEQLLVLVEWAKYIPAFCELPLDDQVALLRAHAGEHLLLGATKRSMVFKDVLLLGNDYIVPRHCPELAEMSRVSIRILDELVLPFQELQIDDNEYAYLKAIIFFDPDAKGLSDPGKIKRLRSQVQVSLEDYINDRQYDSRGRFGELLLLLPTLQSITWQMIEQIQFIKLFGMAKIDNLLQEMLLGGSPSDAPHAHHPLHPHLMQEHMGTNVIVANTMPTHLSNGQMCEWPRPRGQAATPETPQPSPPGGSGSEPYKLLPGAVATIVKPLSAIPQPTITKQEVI
# [12] = molecular target: T4, Hepatocyte nuclear factor 4-alpha (Homo sapiens); assay: Agonist activity at recombinant human pFA-CMV-fused HNF4alpha LBD expressed in HEK293T cells transfected with pFR-luciferase plasmid and pRL-SV40 plasmid at 1 uM incubated for 14 to 16 hrs by dual glo luciferase reporter gene assay; type: cell-based; details: HEK-293T
# [13] = system: HEK-293T; assay: Activation of renilla luciferase expressed in HEK293T cells at 0.1 uM incubated for 14 to 16 hrs by reporter gene assay; type: cell-based; details: Renilla reniformis
SMILES,Activity [1],Drug metabolism [2],Activity [3],Activity [4],EC50 [5],Activity [6],Activity [7],Activity [8],Activity [9],Activity [10],Activity [11],Activity [12],Activity [13]
N[C@@H](Cc1cc(I)c(Oc2cc(I)c(O)c(I)c2)c(I)c1)C(=O)O [LEVOTHYROXINE],Active,Metabolite_Notdetected,–,–,–,–,–,–,–,–,–,–,–
O=C(O)Cc1cc(I)c(Oc2cc(I)c(O)c(I)c2)c(I)c1 [TETRAC],–,–,Active,Active,4.6 µM,Dose-dependent effect,Active,Active,Active,inactive,inactive,Active,inactive
